The source of these data is ChEMBL document CHEMBL1255326, “erm(B)-carrying elements in tetracycline-resistant pneumococci and correspondence between Tn1545 and Tn6003” (2008).

The structures appear in SMILES notation. Active and inactive are the calls of the source. The rule behind the calls is not given here.

In test [1] the test system is Streptococcus pneumoniae. Briefly: Antibacterial activity against tetracycline resistant Streptococcus pneumoniae clinical isolate expressing erm(B) and tet(M) gene by agar dilution CLSI method. The test is classed as functional. (Agar dilution tests growth on a series of plates holding different concentrations.)
Test [2] deals with Streptococcus pneumoniae. Put plainly: Antibacterial activity against tnpR/tnpA positive tetracycline resistant Streptococcus pneumoniae clinical isolate expressing Tn3872 carrying erm(B) and tet(M) gene at 1000 ug by disk diffusion method. Format: functional, organism-based. On the technique in general: In agar diffusion tests the substance spreads into inoculated agar from a disc or well.

For test [3], the system named is Streptococcus pneumoniae. Briefly: Antibacterial activity against tetracycline resistant Streptococcus pneumoniae clinical isolate expressing Tn6002 carrying erm(B) and tet(M) gene at 1000 ug by disk diffusion method. Format: functional, organism-based.
Test [4] relates to Streptococcus pneumoniae. Put plainly: Antibacterial activity against aphA-3 positive tetracycline resistant Streptococcus pneumoniae clinical isolate expressing Tn6003 carrying erm(B)and tet(M) gene at 1000 ug by disk diffusion method. The test is classed as functional, organism-based.

Regarding `CN(C)[C@@H]1C(O)=C(C(N)=O)C(=O)[C@@]2(O)C(O)=C3C(=O)c4c(O)cccc4[C@@](C)(O)[C@H]3C[C@@H]12` [TETRACYCLINE], the MIC (in general, the lowest concentration that inhibits growth of the organism) in test [1] was above 32 µg/mL. In the case of `NC[C@H]1O[C@H](O[C@H]2[C@H](O)[C@@H](O[C@H]3O[C@H](CO)[C@@H](O)[C@H](N)[C@H]3O)[C@H](N)C[C@@H]2N)[C@H](O)[C@@H](O)[C@@H]1O`, the outcome in test [2] and in test [3] was Active. Also, the result in test [4] was inactive. The compound `CC[C@H]1OC(=O)[C@H](C)[C@@H](O[C@H]2C[C@@](C)(OC)[C@@H](O)[C@H](C)O2)[C@H](C)[C@@H](O[C@@H]2O[C@H](C)C[C@H](N(C)C)[C@H]2O)[C@](C)(O)C[C@@H](C)C(=O)[C@H](C)[C@@H](O)[C@]1(C)O` [ERYTHROMYCIN] had an MIC in test [1] above 128 µg/mL.
